# Source: patent US20230023559A1, “ARYLMETHYLENE HETEROCYCLIC COMPOUNDS AS KV1.3 POTASSIUM SHAKER CHANNEL BLOCKERS” (D. E. Shaw Research, LLC, priority 2019, published 2023)
# Columns and labels:
# Kv1.3 potassium channel = biological target: T1, Kv1.3 potassium channel (Homo sapiens, UniProt P22001); assay: Kv1.3 potassium channel blocker activity, automated whole-cell patch clamp (Patchliner); format: cell-based; details: CHO-K1 cells stably expressing Kv1.3; whole cell current inhibition; read-out: Kv1.3_IC50
# T1 construct: expressed in transfected cells
# T1 sequence (P22001 whole entry): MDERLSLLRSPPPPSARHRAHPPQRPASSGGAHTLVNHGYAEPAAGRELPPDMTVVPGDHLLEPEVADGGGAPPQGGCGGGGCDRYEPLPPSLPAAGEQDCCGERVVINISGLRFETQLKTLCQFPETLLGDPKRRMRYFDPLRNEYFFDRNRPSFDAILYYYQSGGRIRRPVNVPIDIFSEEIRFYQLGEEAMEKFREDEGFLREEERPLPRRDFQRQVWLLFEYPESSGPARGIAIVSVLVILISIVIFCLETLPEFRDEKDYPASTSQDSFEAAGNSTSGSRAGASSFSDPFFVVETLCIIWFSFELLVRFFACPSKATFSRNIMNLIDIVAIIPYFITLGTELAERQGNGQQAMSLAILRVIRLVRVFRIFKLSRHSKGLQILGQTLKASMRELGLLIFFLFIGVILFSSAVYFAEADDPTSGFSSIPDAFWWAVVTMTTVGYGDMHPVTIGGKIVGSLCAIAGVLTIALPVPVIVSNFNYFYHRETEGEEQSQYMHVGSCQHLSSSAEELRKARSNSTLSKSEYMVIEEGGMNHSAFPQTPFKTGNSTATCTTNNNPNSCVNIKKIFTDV
# Outline: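 Peak-current block was recorded on stable Kv1.3 CHO-K1 cells by automated patch clamp, stepping from a −90 mV holding potential to +40 mV for 100 ms at 0.1 Hz with 10 s breaks between trains. Online P/4 leak subtraction, 10 kHz sampling; compound exposure under 10 s per train.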
# hERG channel = hERG channel (Homo sapiens, UniProt Q12809); assay: hERG electrophysiology, automated whole-cell patch clamp (Patchliner)
# Sequence of hERG channel (Q12809 whole entry): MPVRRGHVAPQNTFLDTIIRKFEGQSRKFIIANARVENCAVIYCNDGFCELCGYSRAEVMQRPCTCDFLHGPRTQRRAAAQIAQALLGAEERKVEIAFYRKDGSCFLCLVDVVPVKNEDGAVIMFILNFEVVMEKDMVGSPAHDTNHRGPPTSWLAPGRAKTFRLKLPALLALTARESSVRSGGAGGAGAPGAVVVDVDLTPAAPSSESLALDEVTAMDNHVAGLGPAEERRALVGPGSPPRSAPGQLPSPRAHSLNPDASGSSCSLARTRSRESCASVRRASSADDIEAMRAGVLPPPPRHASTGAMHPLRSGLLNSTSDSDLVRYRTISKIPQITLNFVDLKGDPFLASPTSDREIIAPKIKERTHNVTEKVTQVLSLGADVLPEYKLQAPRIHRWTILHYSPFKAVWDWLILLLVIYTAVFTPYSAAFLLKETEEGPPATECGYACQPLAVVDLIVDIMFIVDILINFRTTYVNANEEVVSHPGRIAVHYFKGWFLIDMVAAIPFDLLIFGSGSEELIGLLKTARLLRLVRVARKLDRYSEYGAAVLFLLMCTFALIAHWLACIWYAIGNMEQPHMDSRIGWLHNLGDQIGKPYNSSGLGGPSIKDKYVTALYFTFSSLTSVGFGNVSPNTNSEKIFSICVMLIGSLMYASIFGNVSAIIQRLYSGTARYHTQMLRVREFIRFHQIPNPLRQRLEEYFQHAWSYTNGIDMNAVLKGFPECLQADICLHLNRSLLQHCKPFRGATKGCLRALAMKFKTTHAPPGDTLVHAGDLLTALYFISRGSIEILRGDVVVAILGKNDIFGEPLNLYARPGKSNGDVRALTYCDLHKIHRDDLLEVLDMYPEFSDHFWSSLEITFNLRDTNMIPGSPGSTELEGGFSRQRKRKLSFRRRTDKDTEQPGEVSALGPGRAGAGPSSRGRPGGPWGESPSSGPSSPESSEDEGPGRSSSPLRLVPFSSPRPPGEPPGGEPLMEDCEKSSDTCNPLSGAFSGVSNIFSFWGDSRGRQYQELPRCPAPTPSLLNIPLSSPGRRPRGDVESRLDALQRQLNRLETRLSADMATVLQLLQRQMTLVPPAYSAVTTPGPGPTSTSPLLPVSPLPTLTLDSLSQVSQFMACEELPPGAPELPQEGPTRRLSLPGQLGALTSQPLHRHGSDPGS
# Protocol: CHO-K1 cells stably expressing hERG were grown in Ham's F-12 Medium with Glutamine containing 10% heat-inactivated FBS, 1% Penicillin/Streptomycin, Hygromycin (100 μg/ml) and G418 (100 μg/ml). Cells were grown in culture flasks at 37° C. in a 5% CO2-humidified incubator.
# The cells were bathed in an extracellular solution containing 140 mM NaCl, 4 mM KCl, 2 mM CaCl2), 1 mM MgCl2, 5 mM Glucose, 10 mM HEPES; pH adjusted to 7.4 with NaOH; 295-305 mOsm. The internal solution contained 50 mM KCl, 10 mM NaCl, 60 mM KF, 20 mM EGTA, 10 mM HEPES; pH adjusted to 7.2 with KOH; 285 mOsm. All compounds were dissolved in DMSO at 30 mM. Compound stock solutions were freshly diluted with external solution to concentrations of 30 nM, 100 nM, 300 nM, 1 μM, 3 μM, 10 μM, 30 μM and 100 μM. The highest content of DMSO (0.3%) was present in 100 μM.
# The voltage protocol (see Table B) was designed to simulate voltage changes during a cardiac action potential with a 300 ms depolarization to +20 mV (analogous to the plateau phase of the cardiac action potential), a repolarization for 300 ms to −50 mV (inducing a tail current) and a final step to the holding potential of −80 mV. The pulse frequency was 0.3 Hz. Control (compound-free) and compound pulse trains for each compound concentration applied contained 70 pulses.
# Whole cell current recordings and compound application were enabled by means of an automated patch clamp platform Patchliner (Nanion). EPC 10 patch clamp amplifier (HEKA) along with Patchmaster software (HEKA Elektronik Dr. Schulze GmbH) was used for data acquisition. Data were sampled at 10 kHz without filtering. Increasing compound concentrations were applied consecutively to the same cell without washouts in between.
# AUC and PEAK values were obtained with Patchmaster (HEKA Elektronik Dr. Schulze GmbH). To determine IC50 the last single pulse in the pulse train corresponding to a given compound concentration was used. Obtained AUC and PEAK values in the presence of compound were normalized to control values in the absence of compound. Using Origin (OridinLab), IC50 was derived from data fit to Hill equation: Icompound/Icontrol=(100−A)/(1+([compound]/IC50)nH)+A, where IC50 is the concentration at which current inhibition is half-maximal, [compound] is the applied compound concentration, A is the fraction of current that is not blocked and nH is the Hill coefficient.
Compound,IC50 (Kv1.3 potassium channel) [µM],IC50 (hERG channel) [µM]
"NC(c1cc(Cl)c(Cl)cc1O)C1CCN(C(=O)[C@@H]2CCNC2)CC1 (stereo partly drawn) [Compound 66, (4-(amino(4,5-dichloro-2-hydroxyphenyl)methyl)piperidin-1-yl)((R)-pyrrolidin-3-yl)methanone Trifluoroacetic Acid]",< 0.5,> 30
"N[C@@H](c1cc(Cl)c(Cl)cc1O)C1CCNCC1 (single isomer, unassigned) [Compound 16, Trifluoroacetic Acid]",< 0.5,> 30
"N[C@@H](c1cc(Cl)c(Cl)cc1O)C1CCN(c2cn[nH]c2)CC1 [Compound 149, 2-[(R)-amino[1-(1H-pyrazol-4-yl)piperidin-4-yl]methyl]-4,5-dichlorophenol Trifluoroacetic Acid]",< 10,< 30
"NC(c1cc(Cl)c(Cl)cc1O)C1CCNCC1 (centres unmarked) [Compound 1, 2-(amino(piperidin-4-yl)methyl)-4,5-dichlorophenol Trifluoroacetic Acid]",< 10,> 30
"CC(=O)N1CCC(C(O)c2cc(Cl)c(Cl)cc2O)CC1 (centres unmarked) [Compound 4, 1-(4-((4,5-dichloro-2-hydroxyphenyl)(hydroxy)methyl)piperidin-1-yl)ethanone]",< 10,> 30
"N[C@@H](c1cc(Cl)c(Cl)cc1O)C1CCN(C(=O)[C@H]2CCNC2)CC1 (single isomer, unassigned) [Compound 85]",< 0.5,> 30
"C[C@H](O)C(=O)N1CCC([C@@H](N)c2cc(Cl)c(Cl)cc2O)CC1 [Compound 102, (S)-1-(4-((R)-amino(4,5-dichloro-2-hydroxyphenyl)methyl)piperidin-1-yl)-2-hydroxypropan-1-one]",< 0.5,> 30
"O=C([C@@H]1CCNC1)N1CCC(C(O)c2c(O)ccc(Cl)c2Cl)CC1 (stereo partly drawn) [Compound 126, 3,4-dichloro-2-[hydroxy([1-[(3R)-pyrrolidine-3-carbonyl]piperidin-4-yl])methyl]phenol Trifluoroacetic Acid]",< 10,> 30
"CN(C)CC(=O)N1CCC([C@@H](N)c2cc(Cl)c(Cl)cc2O)CC1 [Compound 89, (R)-1-(4-(amino(4,5-dichloro-2-hydroxyphenyl)methyl)piperidin-1-yl)-2-(dimethylamino)ethanone]",< 0.5,> 30
"N[C@@H](c1cc(Cl)c(Cl)cc1O)C1CCN(C(=O)[C@@H]2CNCCO2)CC1 [Compound 99, (4-((R)-amino(4,5-dichloro-2-hydroxyphenyl)methyl)piperidin-1-yl)((S)-morpholin-2-yl)methanone]",< 0.5,> 30
"N[C@@H](c1cc(Cl)c(Cl)cc1O)C1CCN(C(=O)CO)CC1 [Compound 135, 1-[4-[(R)-amino(4,5-dichloro-2-hydroxyphenyl)methyl]piperidin-1-yl]-2-hydroxyethan-1-one trifluoroacetic acid]",< 0.5,> 30
"C[C@@H](O)C(=O)N1CCC([C@@H](N)c2cc(Cl)c(Cl)cc2O)CC1 [Compound 105, (R)-1-(4-((R)-amino(4,5-dichloro-2-hydroxyphenyl)methyl)piperidin-1-yl)-2-hydroxypropan-1-one]",< 10,> 30
"CN(C)C(=O)N1CCC(C(N)c2cc(Cl)c(Cl)cc2O)CC1 (centres unmarked) [Compound 46, 4-(amino(4,5-dichloro-2-hydroxyphenyl)methyl)-N,N-dimethylpiperidine-1-carboxamide]",< 10,< 30
"O=C([C@@H]1CCNC1)N1CCC([C@H](O)c2cc(Cl)c(Cl)cc2O)CC1 (single isomer, unassigned) [Compound 115]",< 0.5,> 30
"C[C@@H](N)C(=O)N1CCC(C(N)c2cc(Cl)c(Cl)cc2O)CC1 (stereo partly drawn) [Compound 54, (2R)-2-amino-1-(4-(amino(4,5-dichloro-2-hydroxyphenyl)methyl)piperidin-1-yl)propan-1-one Trifluoroacetic Acid]",< 0.5,> 30
C[C@]1(C(=O)N2CCC([C@@H](N)c3cc(Cl)c(Cl)cc3O)CC2)CCCN1 [Compound 96],< 0.5,> 30
"N[C@@H](c1cc(Cl)c(Cl)cc1O)[C@@H]1CCNC1 (single isomer, unassigned; diastereoisomer 2) [Compound 33, 2-(amino(pyrrolidin-3-yl)methyl)-4,5-dichlorophenol Trifluoroacetic Acid Diastereoisomer 2]",< 10,> 30

# Further lines, with some results ahead:
IC50 (Kv1.3 potassium channel) [µM],Compound,IC50 (hERG channel) [µM]
< 0.5,"C[C@@H](O)[C@H](O)C(=O)N1CCC([C@@H](N)c2cc(Cl)c(Cl)cc2O)CC1 [Compound 208, 1-(4-((R)-amino(4,5-dichloro-2-hydroxyphenyl)methyl)piperidin-1-yl)-2,3-dihydroxybutan-1-one trifluoroacetic acid]",> 30
< 10,"CC1(O)CC(C(=O)N2CCC([C@@H](N)c3cc(Cl)c(Cl)cc3O)CC2)C1 (stereo partly drawn) [Compound 163, 2-[(R)-amino[1-(3-hydroxy-3-methylcyclo-butanecarbonyl)piperidin-4-yl]methyl]-4,5-dichlorophenol]",> 30
< 0.5,"N[C@@H](c1c(O)cc(Cl)c(Cl)c1F)C1CCN(C(=O)[C@H](O)CO)CC1 [Compound 291, (R)-1-(4-((R)-amino(3,4-dichloro-2-fluoro-6-hydroxyphenyl)methyl)piperidin-1-yl)-2,3-dihydroxypropan-1-one]",> 30
< 10,"N[C@@H](c1cc(Cl)c(Cl)cc1O)C1CCN(C(=O)c2c[nH]c3ccccc23)CC1 [Compound 204, (R)-(4-(amino(4,5-dichloro-2-hydroxyphenyl)methyl)piperidin-1-yl)(1H-indol-3-yl)methanone trifluoroacetic acid]",< 30
< 10,"N[C@@H](c1c(O)ccc2ccccc12)C1CCN(C(=O)[C@H](O)CO)CC1 [Compound 191, (2R)-1-[4-[(R)-amino(2-hydroxynaphthalen-1-yl)methyl]piperidin-1-yl]-2,3-dihydroxypropan-1-one Trifluoroacetic Acid]",> 30
< 0.5,"Cc1cc(O)c([C@H](N)C2CCN(C(=O)c3ccc(=O)[nH]c3)CC2)cc1Cl [Compound 228, 5-[4-[(R)-amino(5-chloro-2-hydroxy-4-methylphenyl)methyl]piperidine-1-carbonyl]-1H-pyridin-2-one]",> 30
< 10,"CO[C@@H](CO)C(=O)N1CCC([C@@H](N)c2cc(Cl)c(Cl)cc2O)CC1 [Compound 185, (2S)-1-[4-[(R)-amino(4,5-dichloro-2-hydroxyphenyl)methyl]piperidin-1-yl]-3-hydroxy-2-methoxypropan-1-one trifluoroacetic acid]",> 30
< 0.5,"N[C@@H](c1cc(Cl)c(Cl)cc1O)C1CCN(C(=O)c2c[nH]c(=O)cn2)CC1 [Compound 186, (R)-5-(4-(amino(4,5-dichloro-2-hydroxyphenyl)methyl)piperidine-1-carbonyl) pyrazin-2(1H)-one]",> 30
< 0.5,"N[C@@H](c1cc(Cl)c(Cl)cc1O)C1CCN(C(=O)C2CNC(=O)CO2)CC1 (stereo partly drawn) [Compound 231, 6-[4-[(R)-amino(4,5-dichloro-2-hydroxyphenyl)methyl]piperidine-1-carbonyl]morpholin-3-one]",> 30
< 0.5,"Cc1cc(O)c([C@H](N)C2CCN(C(=O)c3ccc4nccn4c3)CC2)cc1Cl [Compound 238, 2-[(R)-amino(1-[imidazo[1,2-a]pyridine-6-carbonyl]piperidin-4-yl)methyl]-4-chloro-5-methylphenol trifluoroacetic acid]",< 30
< 0.5,"COC[C@H](O)C(=O)N1CCC([C@@H](N)c2cc(Cl)c(Cl)cc2O)CC1 [Compound 181, (2S)-1-[4-[(R)-amino(4,5-dichloro-2-hydroxyphenyl)methyl]piperidin-1-yl]-2-hydroxy-3-methoxypropan-1-one trifluoroacetic acid]",> 30
< 0.5,"Cc1cc(O)c([C@H](N)C2CCN(C(=O)[C@@H]3OCC[C@@H]3O)CC2)cc1Cl [Compound 335, (2R,3S)-2-[4-[(R)-amino(5-chloro-2-hydroxy-4-methylphenyl)methyl]piperidine-1-carbonyl]oxolan-3-ol trifluoroacetic acid]",> 30
< 10,"N[C@@H](c1cc(Cl)c(Cl)cc1O)C1CCN(C(=O)C2CC(F)(F)C2)CC1 [Compound 161, 2-[(R)-amino[1-(3,3-difluorocyclo-butanecarbonyl)piperidin-4-yl]methyl]-4,5-dichlorophenol]",< 30
< 0.5,"Cc1[nH]ncc1C(=O)N1CCC([C@@H](N)c2cc(Cl)c(Cl)cc2O)CC1 [Compound 153, 2-[(R)-amino[1-(3-methyl-1H-pyrazole-4-carbonyl)piperidin-4-yl]methyl]-4,5-dichlorophenol trifluoroacetic acid]",> 30
< 10,"N[C@@H](c1cc(Cl)c(Cl)cc1O)C1CCN(C(=O)c2cnc[nH]2)CC1 [Compound 164, 2-[(R)-amino[1-(1H-imidazole-4-carbonyl)piperidin-4-yl]methyl]-4,5-dichlorophenol formic acid]",> 30
< 0.5,"Nc1ccnc(N2CCC([C@@H](N)c3cc(Cl)c(Cl)cc3O)CC2)c1 [Compound 150, (R)-2-(amino(1-(4-aminopyridin-2-yl)piperidin-4-yl)methyl)-4,5-dichlorophenol Trifluoroacetic Acid]",< 30
< 0.5,"Cn1cc(C(=O)N2CCC([C@@H](N)c3cc(Cl)c(Cl)cc3O)CC2)ccc1=O [Compound 232, 5-[4-[(R)-amino(4,5-dichloro-2-hydroxyphenyl)methyl]piperidine-1-carbonyl]-1-methylpyridin-2-one]",> 30
